Like-named read-outs stand apart in the source and are kept apart here.
Key:
[1] = target: T1, β-lactamase from E. coli RTEM (Escherichia coli, UniProt P62593); assay: β-lactamase inhibition, nitrocefin cleavage, isolated enzyme from E. coli RTEM; type: biochemical; conditions: 15 min pre-incubation, nitrocefin substrate, 37° C., pH 7.0
T1 construct: there is obtained a clear crude extract which can be used as the enzyme source; endogenous in cells; host or cells: E. coli RTEM, sonicated cells, clear crude extract
Experimental: (§1) Various β-lactamases can be isolated from penicillin-resistant or cephalosphorin-resistant strains of bacteria such as Klebsiella pneumoniae NCTC 418, Proteus vulgaris 1028 and E. coli RTEM. For this purpose, the corresponding strains are cultivated in Tryptic Soy Broth (Difco) and harvested by centrifugation in the late logarithmic growth phase (when required 50-100 mg/l of ampicillin are added to the medium towards the end of the log-phase in order to induce the β-lactamase). The thus-obtained bacteria mass is treated with 10 mM of phosphate buffer (pH 7.0); the cells are broken open with ultrasound (Biosonic III, Bronwill; 3-5 min. impulse) while cooling. The mixture is centrifuged (20,000 r/min.) for 20-30 minutes and there is obtained a clear crude extract which can be used as the enzyme source (β-lactamase source) and which can be frozen at -20° C. for several months without loss of activity.
(§2) The determination of the activity of the isolated β-lactamases can be carried out according to the method of O'Callaghan, C. H. et al. [Antimicr. Ag. Chemother. 1, 283-288 (1972)] with the chromogenic cephalosporin nitrocefin (Glaxo). The required experimental batch contains per ml of water: 50 mM of phosphate buffer (pH 7.0), 0.1 mM of nitrocefin and sufficient enzyme (β-lactamase) in order to attain a ΔA/min. of about 0.1. The cleavage of the substrate, which is associated with a colour change, is carried out at 37° C. and is followed quantitatively at 482 nm with a spectral photometer.
(§3) The above-described cleavage of the chromogenic substrate by β-lactamases (experiment B) can be inhibited by adding compounds of formula I (inhibitors). Since it has been shown that the inhibitors irreversibly inactivate the β-lactamase in a time-dependent reaction, the reaction (cleavage of the substrate) is started by adding the substrate, in each case after a pre-incubation period of β-lactamase with inhibitor of 15 minutes. The determination of the β-lactamase-inhibiting activity of compounds of formula I in which R^1 signifies a group readily cleavable by hydrolysis is carried out in each case in the presence or absence of an esterase. As a measurement for the affinity of the respective tested inhibitor to the β-lactamase, which represents a measurement of the strength of the inhibitor, there serves that concentration which inhibits to 50% (IC 50 in μM/l) the cleavage of the substrate (nitrocefin) carried out under the above experimental conditions (experiment B) in the absence of an inhibitor. 4 to 6 experiments with differing concentrations of inhibitor were carried out in order to determine the IC 50. The determination of the IC 50 was carried out graphically.

[2] = target: β-lactamase from Proteus vulgaris 1028; assay: β-lactamase inhibition, nitrocefin cleavage, isolated enzyme from P. vulgaris 1028; type: biochemical; conditions: 15 min pre-incubation, nitrocefin substrate, 37° C., pH 7.0
Experimental: as §1, §2, §3

[3] = in the absence of an esterase, read-out: β-Lactamase inhibition IC50, P. vulgaris 1028, -E
[4] = in the presence of an esterase, read-out: β-Lactamase inhibition IC50, P. vulgaris 1028, +E

T1 sequence (P62593 24-286 limits assumed): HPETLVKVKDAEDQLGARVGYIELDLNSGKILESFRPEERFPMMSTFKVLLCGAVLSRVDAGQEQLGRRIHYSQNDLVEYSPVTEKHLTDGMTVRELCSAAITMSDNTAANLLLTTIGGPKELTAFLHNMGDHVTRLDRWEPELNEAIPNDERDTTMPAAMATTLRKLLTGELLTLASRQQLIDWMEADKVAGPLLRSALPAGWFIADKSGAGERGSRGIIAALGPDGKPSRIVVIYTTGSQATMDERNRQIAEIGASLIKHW

Compound: CC(C=C1C(=O)N2[C@@H]1SC(C)(C)[C@@H]2C(=O)OCOC(=O)C(C)(C)C)=NO [Example 1, methylene-(2S,5R)-6-[2-(hydroxyimino)propylidene]pencillanate pivalate]
- IC50 ([1]; in the absence of an esterase): 60 nM
- IC50 ([1]; in the presence of an esterase): 2 nM
- IC50 [2, 3]: 460 nM
- IC50 [2, 4]: 35 nM

Compound: CC(=O)C[C@]1(N2CCOCC2)C(=O)N2[C@@H](C(=O)OCOC(=O)C(C)(C)C)C(C)(C)S[C@@H]21 [Example 3, methylene-(2S,5R,6S)-6-acetonyl-6-morpholino-penicillanate pivalate]
- IC50 ([1]; in the absence of an esterase): 900 nM
- IC50 ([1]; in the presence of an esterase): 10 nM
- IC50 [2, 3]: 4100 nM
- IC50 [2, 4]: 100 nM

Compound: CC(=O)C[C@]1(Sc2ccccc2)C(=O)N2[C@@H](C(=O)OCOC(=O)C(C)(C)C)C(C)(C)S[C@@H]21 [Example 4, methylene-(2S,5R,6S)-6-acetonyl-6-phenylthio-penicillanate pivalate]
- IC50 ([1]; in the absence of an esterase): 800 nM
- IC50 ([1]; in the presence of an esterase): 2 nM
- IC50 [2, 3]: 3700 nM
- IC50 [2, 4]: 300 nM

Compound: CC(=O)C[C@@]1(SC(C)=O)C(=O)N2[C@@H](C(=O)OCOC(=O)C(C)(C)C)C(C)(C)S[C@@H]21 [Example 5, methylene-(2S,5R,6R)-6-acetonyl-6-acetylthio-penicillanate pivalate]
- IC50 ([1]; in the absence of an esterase): 700 nM
- IC50 ([1]; in the presence of an esterase): 10 nM
- IC50 [2, 3]: 4200 nM
- IC50 [2, 4]: 200 nM

From patent US4647457A, “Penicillanic acid derivatives” (Hoffmann-La Roche Inc., priority 1983, dated 1987)
